The values below come from paper PMC3072462 (Journal of medicinal chemistry, 2011).

Bounds are passed on as bounds.

Data set [1] addresses recombinant HIV-1 IN (3′P) (Human immunodeficiency virus type 1 group M subtype B, UniProt P04585). The experiment in a line: In vitro integrase catalytic gel assay, 3′ processing. The data set is classed as biochemical.
The test system of data set [2] is HIV-1IIIB. In words: HIV cytoprotection. As to conditions: for TI (therapeutic index, CC50/EC50): HIV-1IIIB in CEM-SS cells; for activity against HIV-1 (in words): 10 μM, CEM-SS cells.
Data set [3] is described as follows: Compound cytotoxicity / cell viability in CEM-SS cells. The data set is classed as cell-based. As to conditions: human.
In data set [4] the target is recombinant HIV-1 IN (ST) (Human immunodeficiency virus type 1 group M subtype B, UniProt P04585). The experiment in a line: In vitro integrase catalytic gel assay, strand transfer. It counts as biochemical.

For the molecule `CC(C)c1c(Cc2ccccc2)n(COCc2ccc(F)cc2)c(=O)[nH]c1=O` [Compound 9, 6-Benzyl-1-((4-fluorobenzyloxy)methyl)-5-isopropylpyrimidine-2,4(1H,3H)-dione], in data set [1], the IC50 was above 111 µM.

In the case of `CC(C)c1c(Cc2ccccc2)n(COCc2ccc(F)cc2)c(=O)n(C)c1=O` [Compound 10, 6-Benzyl-1-((4-fluorobenzyloxy)methyl)-5-isopropyl-3-methylpyrimidine-2,4(1H,3H)-dione], in data set [1], the IC50 was above 111 µM.

As for `CC(C)c1c(Cc2ccccc2)n(COCc2ccc(F)cc2F)c(=O)n(O)c1=O` [Compound 12, 6-Benzyl-1-((2,4-difluorobenzyloxy)methyl)-3-hydroxy-5-isopropylpyrimidine-2,4(1H,3H)-dione], the IC50 in data set [1] was above 111 µM. In data set [2], the “TI (therapeutic index, CC50/EC50)” value is above 47. This molecule also came in with a viability at 6 days, 10 µM in data set [3] of 100%.

As to `COn1c(=O)c(C(C)C)c(Cc2ccccc2)n(COCc2ccc(F)cc2)c1=O` [Compound 14, 6-Benzyl-1-((4-fluorobenzyloxy)methyl)-5-isopropyl-3-methoxypyrimidine-2,4(1H,3H)-dione], the IC50 in data set [1] was above 111 µM.

With `CC(C)c1c(Cc2ccccc2)n(COCCc2ccc(F)cc2)c(=O)n(O)c1=O` [Compound 28, 6-Benzyl-1-((4-fluorophenethoxy)methyl)-3-hydroxy-5-isopropylpyrimidine-2,4(1H,3H)-dione], the IC50 in data set [1] was above 111 µM.

On to `CC(C)c1c(Cc2ccccc2)n(COCCCc2ccc(F)cc2)c(=O)n(O)c1=O` [Compound 29, 6-Benzyl-1-((3-(4-fluorophenyl)propoxy)methyl)-3-hydroxy-5-isopropylpyrimidine-2,4(1H,3H)-dione], for which, in data set [1], the IC50 was above 111 µM.

For the molecule `CC(C)c1c(Cc2ccccc2)n(COCCCCc2ccc(F)cc2)c(=O)n(O)c1=O` [Compound 30, 6-Benzyl-1-((4-(4-fluorophenyl)butoxy)methyl)-3-hydroxy-5-isopropylpyrimidine-2,4(1H,3H)-dione], the IC50 in data set [1] was above 111 µM.

On to `CC(C)c1c(Cc2ccccc2)n(Cc2ccc(F)cc2)c(=O)n(O)c1=O` [Compound 32, 6-Benzyl-1-(4-fluorobenzyl)-3-hydroxy-5-isopropylpyrimidine-2,4(1H,3H)-dione], for which the IC50 in data set [1] was above 111 µM.

For the molecule `CC(C)c1c(Cc2ccccc2)n(CCc2ccc(F)cc2)c(=O)n(O)c1=O` [Compound 42, 6-Benzyl-1-(4-fluorophenethyl)-3-hydroxy-5-isopropylpyrimidine-2,4(1H,3H)-dione], the IC50 in data set [1] was above 111 µM.

With `CC(C)c1c(Cc2ccccc2)n(CCCc2ccc(F)cc2)c(=O)n(O)c1=O` [Compound 43, 6-Benzyl-1-(3-(4-fluorophenyl)propyl)-3-hydroxy-5-isopropylpyrimidine-2,4(1H,3H)-dione], in data set [1], the IC50 is above 111 µM. In data set [2], the “activity against HIV-1 (in words)” value is “only marginal activity”.

As for `CC(C)c1c(Cc2ccccc2)n(CCCCc2ccc(F)cc2)c(=O)n(O)c1=O` [Compound 44, 6-Benzyl-1-(4-(4-fluorophenyl)butyl)-3-hydroxy-5-isopropylpyrimidine-2,4(1H,3H)-dione], the IC50 in data set [1] is above 111 µM. In addition, the “activity against HIV-1 (in words)” value in data set [2] was “only marginal activity”.

Turning to `CCc1c(Cc2ccccc2)c(=O)[nH]c(=O)n1COCc1ccccc1` [Compound 49, 5-Benzyl-1-(benzyloxymethyl)-6-ethylpyrimidine-2,4(1H,3H)-dione], the viability at 6 days, 10 µM in data set [3] came out at 100%.

For the molecule `CC(C)c1c(Cc2ccc(F)cc2)n(COCc2ccccc2)c(=O)n(O)c1=O` [Compound 51, 1-(Benzyloxymethyl)-6-(4-fluorobenzyl)-3-hydroxy-5-isopropylpyrimidine-2,4(1H,3H)-dione], the IC50 in data set [1] was above 111 µM. For the same molecule, the “TI (therapeutic index, CC50/EC50)” value in data set [2] is listed as above 18. This molecule had a viability at 6 days, 10 µM in data set [3] of 100%.

Regarding `CC(C)c1c(Cc2ccc(F)cc2)n(COCc2ccc(F)cc2)c(=O)n(O)c1=O` [Compound 52, 6-(4-Fluorobenzyl)-1-((4-fluorobenzyloxy)methyl)-3-hydroxy-5-isopropylpyrimidine-2,4(1H,3H)-dione], in data set [1], the IC50 was above 111 µM.

On to `CCc1c(Cc2ccccc2)n(COCc2ccccc2)c(=O)n(O)c1=O` [Compound 53, 6-Benzyl-1-(benzyloxymethyl)-5-ethyl-3-hydroxypyrimidine-2,4(1H,3H)-dione], for which the IC50 in data set [1] is above 111 µM.

Regarding `Cc1cn(COCc2ccccc2)c(=O)n(O)c1=O` [Compound 54, 1-(Benzyloxymethyl)-3-hydroxy-5-methylpyrimidine-2,4(1H,3H)-dione], the IC50 in data set [1] was above 111 µM.

`CCc1c(Cc2ccccc2)c(=O)n(O)c(=O)n1COCc1ccccc1` [Compound 55, 5-Benzyl-1-(benzyloxymethyl)-6-ethyl-3-hydroxypyrimidine-2,4(1H,3H)-dione]: the IC50 in data set [1] is above 111 µM. Moreover, the “fold increase of IC50 value on swapping C5 and C6 substituents” value in data set [4] (ST, 55 vs 53) stood at 4 fold.

In the case of `CCc1c(Cc2ccccc2)c(=O)n(O)c(=O)n1COCc1ccc(F)cc1` [Compound 56, 5-Benzyl-6-ethyl-1-((4-fluorobenzyloxy)methyl)-3-hydroxypyrimidine-2,4(1H,3H)-dione], in data set [1], the IC50 is above 111 µM.

Turning to `CC(C)c1c(Cc2ccc(F)cc2)n(Cc2ccccc2)c(=O)n(O)c1=O` [Compound 64, 1-Benzyl-6-(4-fluorobenzyl)-3-hydroxy-5-isopropylpyrimidine-2,4(1H,3H)-dione], the IC50 in data set [1] is above 111 µM.

In the case of `CC(C)c1c(Cc2ccc(F)cc2)n(Cc2ccc(F)cc2)c(=O)n(O)c1=O` [Compound 65, 1,6-Bis(4-fluorobenzyl)-3-hydroxy-5-isopropylpyrimidine-2,4(1H,3H)-dione], in data set [1], the half-inhibitory concentration (IC50) was above 111 µM.

With `CC(C)c1c(Cc2ccccc2)n(Cc2ccccc2)c(=O)n(O)c1=O` [Compound 66, 1,6-Bibenzyl-3-hydroxy-5-isopropylpyrimidine-2,4(1H,3H)-dione], in data set [1], the IC50 is above 111 µM.

In the case of `CCc1c(Cc2ccccc2)n(Cc2ccccc2)c(=O)n(O)c1=O` [Compound 67, 1,6-Bibenzyl-5-ethyl-3-hydroxypyrimidine-2,4(1H,3H)-dione], the IC50 in data set [1] is above 111 µM. For the same molecule, the “inhibitory activity against IN (in words)” value (shortened to “inhibitory activity”) in data set [4] is “complete loss of inhibition”.

As for `CCc1c(Cc2ccccc2)n(Cc2ccc(F)cc2)c(=O)n(O)c1=O` [Compound 68, 6-Benzyl-5-ethyl-1-(4-fluorobenzyl)-3-hydroxypyrimidine-2,4(1H,3H)-dione], the IC50 in data set [1] was above 111 µM.

For the molecule `Cc1cn(Cc2ccccc2)c(=O)n(O)c1=O` [Compound 69, 1-Benzyl-3-hydroxy-5-methylpyrimidine-2,4(1H,3H)-dione], the IC50 in data set [1] was above 111 µM.

`Cc1cn(Cc2ccc(F)cc2)c(=O)n(O)c1=O` [Compound 70, 1-(4-Fluorobenzyl)-3-hydroxy-5-methylpyrimidine-2,4(1H,3H)-dione]: in data set [1], the IC50 is above 111 µM.

As to `O=c1c2ccccc2n(Cc2ccccc2)c(=O)n1O` [Compound 75], in data set [1], the IC50 was above 111 µM. In addition, in data set [4], the IC50 is above 111 µM and the “inhibitory activity” value was “completely inactive”.

As to `O=c1c2ccccc2n(Cc2ccc(F)cc2)c(=O)n1O` [Compound 76], the IC50 in data set [1] is above 111 µM. For the same molecule, in data set [4], the IC50 was above 111 µM and the “inhibitory activity” value is “completely inactive”.
